Data published in patent US10695330B2, “Methods of treatment” (Global Blood Therapeutics, Inc., priority 2015, dated 2020).

Legend:
[1] = tested on: mice with LPS-induced ALI; assay: LPS-induced acute lung injury mouse model with hypoxic challenge: inflammation, SpO2, survival; format: in vivo; conditions: for survival: after 4 hours of exposure to 5% O2 hypoxia; for increase of SpO2, of control value: 5% O2 hypoxia
Experimental: Adult, 8-10-week-old male C57BL/6J mice (Jackson Laboratory, Bar Harbor, Me.), were anesthetized with isoflurane, injected with 100 μg LPS (Sigma, St. Louis, Mo.) in 100 μL PBS by direct intratracheal injection. After 24 hours, mice were given Compound 1 (70 or 140 mg/kg formulated in dimethylacetamide, polyethylene glycol 400 (PEG400) and 40% cavitron in a ratio of 1:5:4, respectively) or vehicle only (5 μL/g) by oral gavage 2 hours prior to placement in a hypoxia chamber. Mice were exposed to either 10 or 5% O2 for 4 hours. Oxygen saturation (SaO2) was measured with a pulse oximeter (STARR Life Sciences, Oakmont, Pa.) at baseline and hourly during hypoxic exposure. During hypoxic exposure, mice were monitored continuously and a moribund check was done every 15 minutes. Time to death was assessed by time to moribund status. Mice were determined to be moribund if they could not right themselves when placed in a supine position.
Blood was collected by cardiac puncture in the hypoxic chamber. Blood gases were measured using the i-STAT portable analyzer within the hypoxic environment (Abaxis, Union City, Calif.). Remaining blood samples were used for hemoximetry and pharmacokinetic analysis. For sample collection, mice were euthanized with pentobarbital overdose. A bronchoaleveolar lavage (BAL) was performed with 900 uL Saline. Blood was collected by retro orbital puncture, and then spun to collect plasma. Lungs were removed and flash frozen. All samples were stored at −80° C. until further study. BAL inflammatory cell counts and differentials were determined manually after staining cytospins with DiffQuik. BAL protein was measured using a Pierce BCA Protein Assay Kit (Thermo Scientific, Waltham, Mass.).
Using a MouseOx, peripheral arterial O2 saturation (SpO2) was measured during hypoxia. SpO2 was measured for each group every hour during hypoxia. In general, SpO2 decreased during hypoxia for all groups. […] For example, during 5% O2 hypoxia, Compound 1 at 70 mg/kg or 140 mg/kg increased SpO2 by 22% or 31% of control value, respectively.
During exposure hypoxia, mice were monitored continuously and a moribund check was done every 15 minutes. Time to death was assessed by time to moribund status. Mice were determined to be moribund if they could not right themselves when placed in a supine position.

[2] = tested on: activated neutrophils; assay: Oxidative burst in activated neutrophils; format: cell-based; conditions: in vitro
From the text: Reactive oxygen species (ROS) released from activated white blood cells cause lung injury as well as fibrotic changes in patients with IPF. […] Thus, the compounds described herein could also provide a method to inhibit the adverse effects of inflammation in a patient. Reduction in systemic pro-inflammatory cytokines (tumor necrosis alpha and interleukin-6) also has the potential to exert a broad anti-inflammatory effect which would supplement the beneficial effect of alleviation of hypoxemia via increased hemoglobin-O2 affinity.

[3] = target: T1, Hb (Mus musculus, UniProt P01942); assay: Tolerance to hypoxia mouse model: PK/PD (Hb occupancy, hemoximetry of blood from dosed mice); format: in vivo; conditions: healthy mice
T1 construct: from tissue; host or cells: whole blood (red blood cells) of dosed C57BL / C57BL/6J mice
Experimental: Male, C57BL mice were fitted with a dorsal skinfold window chamber for direct visualization of an intact microvascular bed (Yalcin & Cabrales 2012). After the window chamber was implanted, the animals were left to recover for at least 2 days, before undergoing surgery a second time for arterial (carotid) catheter implantation (PESO tubing). After two day of recovery, mice were dosed orally with Compound 1 (70 or 140 mg/kg) or vehicle only and Hb O2 affinity was determined by hemoximetry. Two hours post dose, conscious mice were placed in a restraining tube with a longitudinal slit from which the protruding window chamber provided a microscopic stage for observation. In this setup, gas flow rate (0.2 L/min) into the tube is diffused by a cotton filter barrier. Baseline measurements for normoxia (21% O2) were completed within an hour of restraining mice. The animals were then exposed to stepwise hypoxia by decreasing the O2 concentration to 15, 10 and 5%. Animals were kept at each hypoxic level for 30 min. Mice were allowed 15 min of acclimatization at each new hypoxic level before measurements were taken. During hypoxia, changes in systemic and microvascular hemodynamics, blood gases, blood lactate, tissue partial pressure of O2 (PO2), tissue hypoxia and tolerance to hypoxia were evaluated. At each time point, mice with adequate systolic blood pressure (BP) were counted as survived and mice with severe hypotension (BP≤60 mmHg) were counted as non-survived and were euthanized.
Oxygen equilibrium curves for mice blood were obtained by deoxygenation of O2-equilibrated samples in a Hemox buffer at 37° C., using a Hemox Analyzer (TCS Scientific Corporation, New Hope, Pa.). […] The absorbance at wavelengths that correspond to the isosbestic point (570 nm) and deoxy Hb (560 nm) was recorded as a function of the sample O2 tension (pO2). During deoxygenation, the pO2 and percent O2 saturation values were collected to obtain the OECs and the p50 values (partial pressure of O2 at which Hb is 50% saturated with O2). p50 values were calculated using a non-linear regression analysis. […]

T1 sequence (P01942 2-142 limits assumed): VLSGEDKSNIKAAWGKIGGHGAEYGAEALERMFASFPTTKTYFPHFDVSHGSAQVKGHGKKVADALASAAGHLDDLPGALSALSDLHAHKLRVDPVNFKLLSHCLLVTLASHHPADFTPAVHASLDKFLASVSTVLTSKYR
T1 sequence (P02088 2-147 partner limits assumed): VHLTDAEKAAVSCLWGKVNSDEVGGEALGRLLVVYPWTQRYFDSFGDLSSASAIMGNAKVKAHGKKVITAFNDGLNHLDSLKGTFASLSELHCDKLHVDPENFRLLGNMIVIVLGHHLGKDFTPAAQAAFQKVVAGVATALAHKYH

With O=Cc1c(O)cccc1OC[C@@H]1CCCCN1C(=O)c1cccnc1 [Compound 1, (S)-2-hydroxy-6-((1-nicotinoylpiperidin-2-yl)methoxy)benzaldehyde] the “inflammation or lung injury (BALF total cells, neutrophils, macrophages, total protein)” value ([1]; 100 μg LPS intratracheal) was “no significant effect on inflammation or lung injury”, the survival ([1]; 70 mg/kg) was 60% and the survival ([1]; 140 mg/kg) was 86%. The “increase of SpO2, of control value” ([1]; 70 mg/kg) was 22%, the “increase of SpO2, of control value” ([1]; 140 mg/kg) was 31% and the “SpO2 compared to control” value ([1]; during 10% and 5% O2 hypoxia, average over 4 hours) was “higher in Compound 1 dosed mice compared to control”. The “anti-oxidative activity (oxidative burst)” value [2] was “displayed anti-oxidative”, the “calculated Hb occupancy” value ([3]; 70 mg/kg oral) was roughly 30% and the “calculated Hb occupancy” value ([3]; 140 mg/kg oral) was roughly 60%. For the same compound, the “Hb O2 affinity (left-shift in the OEC) in whole blood from dosed mice” value ([3]; 70 or 140 mg/kg oral, vs vehicle) was “dose-dependent increase in Hb O2 affinity relative to control”.
